Experimental data: DBAASP
Converted amounts (≈) assume the structure as drawn. “And” between values parts separate entries of the source, which are not always exact repeats. Equal entries are not always repeated.

Experiments:
Test in all cases: ≥ marks a high value that may be exact or a test limit, other limits are often not marked, values filed in µg/mL are converted to µM
[1] = tested on: Pseudomonas aeruginosa ATCC 27853
[2] = tested on: Acinetobacter baumannii ATCC 19606
[3] = tested on: Staphylococcus epidermidis LT1324
[4] = tested on: Staphylococcus aureus II ATCC 6538P
[5] = tested on: Escherichia coli D21
[6] = tested on: Micrococcus luteus
[7] = tested on: Escherichia coli ATCC 25922
[8] = tested on: Staphylococcus simulans
[9] = tested on: Staphylococcus aureus ATCC 25923
[10] = tested on: Aspergillus flavus
[11] = tested on: Escherichia coli ATCC 35218
[12] = tested on: Candida albicans ATCC 90028
[13] = tested on: Saccharomyces cerevisiae
[14] = tested on: Bacillus megaterium
[15] = tested on: Candida parapsilosis ATCC 22019
[16] = tested on: Enterococcus faecalis ATCC 29212
[17] = tested on: Staphylococcus aureus ATCC 2576
[18] = tested on: Shigella dysenteriae ATCC 2932
[19] = tested on: Staphylococcus aureus
[20] = tested on: Shigella dysenteriae
[21] = tested on: Candida albicans ATCC 3007
[22] = tested on: Escherichia coli ATCC 25629
[23] = tested on: Escherichia coli
[24] = tested on: Salmonella enterica subsp. enterica serovar Typhimurium LT2
[25] = tested on: Escherichia coli ATCC 25726
[26] = tested on: Staphylococcus epidermidis RP62A
[27] = tested on: Prevotella melaninogenica
[28] = tested on: Staphylococcus aureus NCTC 8325
[29] = tested on: Klebsiella pneumoniae KK3 9904
[30] = tested on: Fusobacterium nucleatum
[31] = tested on: Clostridium tertium ATCC 19465
[32] = tested on: Clostridium septicum
[33] = tested on: Fusobacterium varium ATCC 27725
[34] = tested on: Peptostreptococcus anaerobius
[35] = tested on: Peptoniphilus asaccharolyticus ATCC 29743
[36] = tested on: Bacteroides fragilis
[37] = tested on: Proteus mirabilis ATCC 25933
[38] = tested on: Candida albicans ATCC 900280
[39] = tested on: Cutibacterium acnes
[40] = tested on: Clostridium perfringens ATCC 10543
[41] = tested on: Cutibacterium acnes ATCC 11828
[42] = tested on: Bacteroides fragilis ATCC 25285
[43] = tested on: Enterobacter cloacae HNTCC 53001
[44] = tested on: Staphylococcus aureus T7/5

CC(C)C[C@H](NC(=O)[C@H](CC(C)C)NC(=O)[C@H](CCCCN)NC(=O)[C@H](CC(C)C)NC(=O)[C@H](CC(C)C)NC(=O)[C@H](CCCCN)NC(=O)[C@H](CC(C)C)NC(=O)[C@H](CC(C)C)NC(=O)[C@H](CCCCN)NC(=O)[C@H](CC(C)C)NC(=O)[C@H](CC(C)C)NC(=O)[C@H](CCCCN)NC(=O)[C@H](CC(C)C)NC(=O)[C@@H](N)CCCCN)C(=O)N[C@@H](CCCCN)C(N)=O [KLKLLKLLKLLKLLK]
MIC [1]: 6 µM (≈ 10.8 µg/mL) | MIC [2]: 2 µM (≈ 3.61 µg/mL) | MIC [3]: 1.5 µM (≈ 2.71 µg/mL) | MIC [4]: 6 µM (≈ 10.8 µg/mL) | MIC [5]: 3 µM (≈ 5.41 µg/mL) | MIC [6]: 2 µM (≈ 3.61 µg/mL) | MIC [7]: 3 µM (≈ 5.41 µg/mL) | MIC [8]: 1.5 µM (≈ 2.71 µg/mL)

CC[C@H](C)[C@H](NC(=O)[C@@H]1CCCN1C(=O)[C@H](CC(C)C)NC(=O)[C@@H](N)Cc1ccccc1)C(=O)N[C@H](C(=O)N[C@H](C(=O)N[C@@H](CC(N)=O)C(=O)N[C@@H](CC(C)C)C(=O)N[C@@H](CC(C)C)C(=O)N[C@@H](CO)C(=O)NCC(=O)N[C@@H](CC(C)C)C(=O)N[C@@H](CC(C)C)C(=O)O)[C@@H](C)O)C(C)C [FLPIVTNLLSGLL]
MIC [9]: 58 µM (≈ 81.2 µg/mL) | MIC [1]: > 231 µM | MIC [10]: ≥ 58 µM | MIC [11]: ≥ 116 µM | MIC [12]: ≥ 116 µM | MIC [7]: 231 µM (≈ 323 µg/mL) | MIC [13]: ≥ 116 µM | MIC [14]: ≥ 46 µM | MIC [15]: ≥ 116 µM | MIC [16]: > 116 µM

CC[C@H](C)[C@H](NC(=O)CN)C(=O)N[C@@H](CC(C)C)C(=O)N[C@@H](CCCCN)C(=O)N[C@@H](CCCCN)C(=O)N[C@@H](Cc1ccccc1)C(=O)N[C@@H](CCSC)C(=O)N[C@@H](CC(C)C)C(=O)N[C@@H](Cc1cnc[nH]1)C(=O)N[C@@H](CCCN=C(N)N)C(=O)NCC(=O)N[C@H](C(=O)N[C@@H](CCCCN)C(=O)N[C@H](C(=O)N[C@@H](Cc1ccc(O)cc1)C(=O)N[C@@H](CCCCN)C(=O)N[C@@H](CCSC)C(=O)N[C@@H](CCCN=C(N)N)C(=O)N[C@H](C(=O)N[C@@H](CC(C)C)C(=O)N[C@@H](CO)C(=O)N[C@@H](CCCCN)C(=O)N[C@@H](CCCN=C(N)N)C(=O)N[C@@H](CO)C(=O)N[C@@H](Cc1cnc[nH]1)C(=O)O)[C@@H](C)O)C(C)C)[C@@H](C)O [GILKKFMLHRGTKVYKMRTLSKRSH]
MIC [17]: 0.166 µM (≈ 0.5 µg/mL) | MIC [18]: 0.829 µM (≈ 2.5 µg/mL) | MIC [19]: 0.332 µM (≈ 1 µg/mL) | MIC [20]: 1.66 µM (≈ 5 µg/mL) | MIC [21]: 2.49 µM (≈ 7.5 µg/mL) | MIC [22]: 1.66 µM (≈ 5 µg/mL) | MIC [23]: 1.66 µM (≈ 5 µg/mL)

CC[C@H](C)[C@H](NC(=O)[C@H](CCCCN)NC(=O)[C@H](CCCCN)NC(=O)[C@H](C)NC(=O)[C@H](CC(C)C)NC(=O)[C@H](CC(N)=O)NC(=O)[C@@H](NC(=O)[C@H](CC(C)C)NC(=O)[C@@H](NC(=O)CNC(=O)[C@H](CC(C)C)NC(=O)[C@H](Cc1ccccc1)NC(=O)[C@@H](N)Cc1cnc[nH]1)[C@@H](C)O)C(C)C)C(=O)N[C@@H](CC(C)C)C(N)=O [HFLGTLVNLAKKIL]
MIC [24]: ≥ 32 µM | MIC [25]: ≥ 32 µM | MIC [26]: 4 µM (≈ 6.26 µg/mL) | MIC [27]: 12.5 µM (≈ 19.6 µg/mL) | MIC [28]: 6.32 µM (≈ 9.9 µg/mL) | MIC [9]: 8 µM (≈ 12.5 µg/mL) | MIC [29]: ≥ 32 µM | MIC [1]: 32 µM (≈ 50.1 µg/mL) | MIC [30]: 25 µM (≈ 39.1 µg/mL) | MIC [31]: 3 µM (≈ 4.7 µg/mL) | MIC [32]: 12.5 µM (≈ 19.6 µg/mL) | MIC [33]: ≥ 50 µM | MIC [34]: 12.5 µM (≈ 19.6 µg/mL) | MIC [35]: 25 µM (≈ 39.1 µg/mL) | MIC [12]: ≥ 40 µM and 25 µM | MIC [36]: ≥ 50 µM | MIC [7]: 20 µM (≈ 31.3 µg/mL) | MIC [37]: ≥ 128 µM | MIC [38]: 16 µM (≈ 25.1 µg/mL) | MIC [39]: 6 µM (≈ 9.4 µg/mL) | MIC [40]: 6 µM (≈ 9.4 µg/mL) | MIC [41]: 6 µM (≈ 9.4 µg/mL) | MIC [42]: ≥ 50 µM | MIC [43]: ≥ 32 µM | MIC [16]: 16 µM (≈ 25.1 µg/mL) | MIC [44]: 10 µM (≈ 15.7 µg/mL)
